Entries after “also recorded” stand apart in the source; their conditions may differ. Read-outs that look alike come from different tables or passages of the source.
Assays:
[1] = Plasma pharmacokinetics in cattle; conditions: following a 10 mg/kg dose, separate PK study
Description: (§2) The primary clinical endpoint for efficacy was treatment failure/success over a 14-day observation period. Clinically normal beef calves (150-200 kg) at moderate risk for BRD were dosed on arrival to the feedlot. Animals (N=114/group) received saline (T01), 5 mg/kg M9 (T02), 10 mg/kg M9 (T03) or Zactran (T04).

E. coli = test: In-vitro MIC model (CLSI broth micro-dilution); conditions: Escherichia coli, ATCC25922, read-out: Comparative MIC's, E. coli ATCC 25922
Lipophilicity (logP) = type: physicochemical
From the text: The lipophilicity of an organic compound can be described by a partition coefficient, log P, which can be defined as the ratio of the concentration of the unionized compound at equilibrium between organic and aqueous phases. Generally speaking, more lipophilic compounds are less soluble in aqueous media. A negative value for log P means the compound has a higher affinity for the aqueous phase (hydrophilic); when log P=0 the compound is equally partitioned between the lipid and aqueous phases; a positive value for log P denotes a higher concentration in the lipid phase (lipophilic). Lipophilicity is a major determining factor in a compound's absorption, distribution in the body, penetration across vital membranes and biological barriers, metabolism and excretion. The compounds of the invention are lipophilic (log P˜0.503 to 5.96) which aid in their transport and absorption into respiratory tissues, e.g., lungs.

[2] = tested on: BRD pathogens, M. haemolytica and P. multocida; test: MIC screening panel of BRD pathogens (antibacterial / non-antibacterial)
[3] = tested on: bovine respiratory disease (BRD); test: Natural bovine respiratory disease (field) studies; type: in vivo, cattle; conditions: for Percent failure (treatment failure): 14-day observation, beef calves at moderate risk for BRD, saline 43%
[4] = tested on: bovine alveolar macrophages; test: Phospholipidosis assay (HCS LipidTox, Incucyte); type: cell-based; conditions: Bos taurus, Macrophage
From the text: The second immunomodulation in vitro assay evaluated the potential for phospholipidosis with the compounds of the invention in bovine alveolar macrophages. This assay is utilized to determine cellular uptake of the compounds of the invention in relevant bovine and murine cell types. This assay utilized Invitrogen's commercially available HCS LipidTox detection kit with an Incucyte real time fluorescence reader to observe variations in EC50 and phospholipidosis profiles based on compound concentrations. Murine intraperitoneal macrophages were also used in the same assay to evaluate species variability for potential correlation with mouse efficacy results. The combination of the bovine whole blood assay and phospholipidosis assays enabled rank ordering for progression into in vivo testing in the murine challenge model.

[5] = tested on: E. coli and Salmonella isolates; test: Ames mutagenicity test; type: cell-based; conditions: 1-5000 μg/plate, plate incorporation method
Description: In an Ames mutagenicity test, Example H-91 (1-5000 μg/plate; using the plate incorporation method and a standard panel of bacterial (E. coli and Salmonella isolates) was negative (non-mutagenic).

[6] = Lactone A / lactone B equilibration in aqueous solution; type: physicochemical; conditions: pH>6 and temperatures >60° C.
Description: The H-11 lactones were separated by HPLC using an Agilent 1100 quaternary pump and diode array detector (250 nm) with an X-select CSH C18 column (150×4.6 mm, 2.5 μm) at 50° C. using a gradient mobile phase (mp) comprising 0.03% H2SO4 in water (mpA) and acetonitrile (mpB) over 16 minutes. Lactone A eluted at 5.8 minutes (area % 92.4) and lactone B eluted at 5.2 minutes (area % 7.6).
In an aqueous solution, Example H-11 exists as an equilibrated mixture of two lactone isomers as shown above. The ratio is approximately 9:1 lactone A:B. The rate of equilibration depends on pH and temperature, with neutral pH giving faster equilibration, pH˜5-6 giving much slower equilibration, and higher temperatures resulting in faster equilibration. Equilibration occurs in under 1-hour at pH>6 and temperatures >60° C. H-11 isomerization is a 6 exo-Trig cyclization and is a favored reaction by Baldwin's Rules. The dominant isomer, lactone-A, is a 15-membered macrocyclic lactone, while the minor isomer, lactone-B, is a 13-membered macrocyclic lactone. […]

[7] = tested on: IL-17 / IFN-γ producing CD4+ T helper cells; test: In vivo genomics challenge model: T helper subtypes and airway IL-17; set-up: species or system Holstein cattle
[8] = pH dependent aqueous solubility; type: physicochemical
Description: In an aqueous solution, Example H-11 exists as an equilibrated mixture of two lactone isomers as shown above. The ratio is approximately 9:1 lactone A:B. The rate of equilibration depends on pH and temperature, with neutral pH giving faster equilibration, pH˜5-6 giving much slower equilibration, and higher temperatures resulting in faster equilibration. Equilibration occurs in under 1-hour at pH>6 and temperatures >60° C. H-11 isomerization is a 6 exo-Trig cyclization and is a favored reaction by Baldwin's Rules. The dominant isomer, lactone-A, is a 15-membered macrocyclic lactone, while the minor isomer, lactone-B, is a 13-membered macrocyclic lactone. […] Due to the pH dependent solubility of H-11, and other compounds of the invention, dissolution of an organic acid (e.g., citric acid) into water prior to adding the active agent (e.g., H-11) may be necessary to ensure complete dissolution, particularly for higher concentration solutions, thereby providing a solution with enough buffering capacity for dissolution.

IL-36RA = IL-36RA change during natural infection bovine studies; type: in vivo, cattle; conditions: H-91 0.5 mg/kg, H-11 0.1 mg/kg; for IL-36RA concentration relative to the baseline concentration after the elevation: after roughly 8 hours; for increase in IL-36RA compared to baseline: within 1 hour, FIG. 5
Description: (§1) Intensive sample collection was conducted over a 96-hour period in a subset of cattle treated with Example H-91 (0.5 mg/kg) or H-11 (0.1 mg/kg) in the natural bovine infection studies. […] The compounds of the invention have shown an up-regulation of IL-36RA, which then binds to IL-36R limiting the pro-inflammatory response of IL-36. In addition, the IL-8 levels from one of the natural infection studies with Example H-91, increased 270% over the course of the study for control animals. In contrast, the IL-8 levels in animals dosed with Example H-91 decreased by about 15%.

IL-8 = IL-8 levels in cattle (natural infection and M. hemolytica challenge studies); type: in vivo; conditions: over the course of a natural infection study; control animals increased 270%
Description: as §1

in vivo = conditions: Holstein, bovine, plasma, subcutaneous, 2.5 mg/kg
Description: as §2

[9] = read-out: antibacterial / non-antibacterial (MIC for the BRD pathogens)

SMILES: CCCNC[C@]1(O)[C@H](C)O[C@@H](O[C@H]2[C@H](C)[C@@H](O[C@@H]3O[C@H](C)C[C@H](NC)[C@H]3O)[C@](C)(O)C[C@@H](C)CN[C@H](C)[C@@H](O)[C@](C)(O)[C@@H](CC)OC(=O)[C@@H]2C)C[C@@]1(C)OC [Example M9, (2R,3S,4R,5R,8R,10R,11R,12S,13S,14R)-2-ethyl-3,4,10-trihydroxy-13-(((2R,4R,5S,6S)-5-hydroxy-4-methoxy-4,6-dimethyl-5-((propylamino)methyl)-tetrahydro-2H-pyran-2-yl)oxy)-11-(((2S,3R,4S,6R)-3-hydroxy-6-methyl-4-(methylamino)tetrahydro-2H-pyran-2-yl)oxy)-3,5,8,10,12,14-hexamethyl-1-oxa-6-azacyclopentadecan-15-one, reference compound]
- maximum plasma concentration [1]: 5 µg/mL
- MIC (E. coli): > 64 µg/mL
- logP (Lipophilicity (logP)): 2.2
- MIC ([2]; read-out: MIC for the BRD bacterial strains tested / target pathogens): ≤ 64 µg/mL
- MIC [2, 9]: < 64 µg/mL
- Percent failure (treatment failure) ([3]; 5 mg/kg (T02)): 19.3%
- Percent failure (treatment failure) ([3]; 10 mg/kg (T03)): 8.8%
- EC50 [4]: 3740 µM

SMILES: CCCNC[C@]1(O)[C@H](C)O[C@@H](O[C@H]2[C@H](C)[C@@H](O[C@@H]3O[C@H](C)C[C@H](N(C)C(=O)N(C)c4ccccc4)[C@H]3O)[C@](C)(O)C[C@@H](C)CN[C@H](C)[C@@H](O)[C@](C)(O)[C@@H](CC)OC(=O)[C@@H]2C)C[C@@]1(C)OC [Example H-11, 1-((2S,3R,4S,6R)-2-(((2R,3S,4R,5R,8R,10R,11R,12S,13S,14R)-2-ethyl-3,4,10-trihydroxy-13-(((2R,4R,5S,6S)-5-hydroxy-4-methoxy-4,6-dimethyl-5-((propylamino)methyl)tetrahydro-2H-pyran-2-yl)oxy)-3,5,8,10,12,14-hexamethyl-15-oxo-1-oxa-6-azacyclopentadecan-11-yl)oxy)-3-hydroxy-6-methyltetrahydro-2H-pyran-4-yl)-1,3-dimethyl-3-phenylurea]
- Ames mutagenicity test [5]: non-mutagenic
- logP (Lipophilicity (logP)): 3.2
- time to equilibration of the lactone isomers [6]: under 1 hour
- Th1:Th17 ratio post-treatment ([7]; 0.1 mg/kg (T02), blood at 24 and 48 hours, FIG. 9): increase
- IL-17 levels in the airway (BAL fluid, consolidated lung tissue) ([7]; animals challenged with M. haemolytica, FIG. 10): reduction
- aqueous solubility ([8]; acidic pH): very soluble
- aqueous solubility ([8]; as the pH approaches neutral conditions): lower solubility
- in vitro activity vs. clinically relevant pathogenic strains for BRD (M. haemolytica and P. multocida) [2]: lack of in vitro activity
- MIC [2, 9]: > 64 µg/mL
- Treatment success ([3]; 0.03 mg/kg (T02) subcutaneous Day 0, natural field study to Day 7, saline 32.1%): 58.3%
- Treatment success ([3]; 0.1 mg/kg (T03) subcutaneous Day 0, natural field study to Day 7, saline 32.1%): 60.7%
- Treatment success ([3]; 0.3 mg/kg (T04) subcutaneous Day 0, natural field study to Day 7, saline 32.1%): 51.2%
- Treatment success ([3]; 1 mg/kg (T05) subcutaneous Day 0, natural field study to Day 7, saline 32.1%): 40.5%
- EC50 [4]: 4 µM
- IL-36RA concentration relative to the baseline concentration after the elevation (IL-36RA): −55%
- increase in IL-36RA compared to baseline (IL-36RA): about 50%

SMILES: CCCNC[C@]1(O)[C@H](C)O[C@@H](O[C@H]2[C@H](C)[C@@H](O[C@@H]3O[C@H](C)C[C@H](N(C)C(=O)Nc4ccccc4)[C@H]3O)[C@](C)(O)C[C@@H](C)CN[C@H](C)[C@@H](O)[C@](C)(O)[C@@H](CC)OC(=O)[C@@H]2C)C[C@@]1(C)OC [Example H-91, 1-((2S,3R,4S,6R)-2-(((2R,3S,4R,5R,8R,10R,11R,12S,13S,14R)-2-ethyl-3,4,10-trihydroxy-13-(((2R,4R,5S,6S)-5-hydroxy-4-methoxy-4,6-dimethyl-5-((propylamino)methyl)tetrahydro-2H-pyran-2-yl)oxy)-3,5,8,10,12,14-hexamethyl-15-oxo-1-oxa-6-azacyclopentadecan-11-yl)oxy)-3-hydroxy-6-methyltetrahydro-2H-pyran-4-yl)-1-methyl-3-phenylurea]
- Ames mutagenicity test [5]: negative; also recorded: non-mutagenic
- logP (Lipophilicity (logP)): 3.1
- decrease of IL-8 levels (IL-8): about 15%
- in vitro activity vs. clinically relevant pathogenic strains for BRD (M. haemolytica and P. multocida) [2]: lack of in vitro activity
- MIC [2, 9]: > 64 µg/mL
- Treatment success ([3]; 0.5 mg/kg (T02) subcutaneous Day 0, natural field study to Day 7, saline 43.0%): 57.9%
- Treatment success ([3]; 2.5 mg/kg (T03) subcutaneous Day 0, natural field study to Day 7, saline 43.0%): 43.9%
- EC50 [4]: 88 µM
- Cmax (in vivo): 152 ng/mL
- IL-36RA concentration relative to the baseline concentration after the elevation (IL-36RA): −55%
- increase in IL-36RA compared to baseline (IL-36RA): about 275%
